Measurements reported in ChEMBL document CHEMBL3988442, “University of Dundee, Small-Polar-MMV Screening Library” (2021).

Molecular target: Tryptophan--tRNA ligase (Mycobacterium tuberculosis (strain ATCC 25618 / H37Rv), UniProt P9WFT3)
Assay: Biochemical assay for Mt-TrpRS
Type: functional

Tryptophan--tRNA ligase, sequence (P9WFT3 whole entry): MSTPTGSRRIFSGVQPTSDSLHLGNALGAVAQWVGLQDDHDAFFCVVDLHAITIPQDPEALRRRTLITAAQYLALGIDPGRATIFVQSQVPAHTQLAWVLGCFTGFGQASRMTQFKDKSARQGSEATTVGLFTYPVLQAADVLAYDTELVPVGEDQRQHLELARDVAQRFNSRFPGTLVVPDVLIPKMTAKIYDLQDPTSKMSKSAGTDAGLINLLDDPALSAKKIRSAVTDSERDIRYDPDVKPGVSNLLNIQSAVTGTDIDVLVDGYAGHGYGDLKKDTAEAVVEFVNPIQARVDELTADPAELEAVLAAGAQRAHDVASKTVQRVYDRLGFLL

Q: For `O=C(C1CCCC1)N1CCCC(c2nc(O)cc(-c3ccncc3)n2)C1` (configuration not stated), which IC50 is on record?
A: The IC50 was > 195 µM.

Q: Which IC50 does the source give for `COc1cccc(F)c1CN1CCC(c2nc(C)cc(C)n2)C1` (configuration not stated) here?
A: Its IC50 is > 195 µM.

Q: With `N#Cc1cnc(N2CCC3(CC2)OCCO3)nc1N` as the compound, how does the IC50 read?
A: Its IC50 is > 195 µM.

Q: Which IC50 does the source give for `Cc1ccc(S(=O)(=O)N2C[C@H]3C[C@H](NC(=O)c4cc[nH]n4)[C@H]3C2)cc1` here?
A: Its IC50 is > 195 µM.

Q: With `NCc1cnn(-c2ccccc2C(=O)NCCc2ccccn2)c1` as the compound, how does the IC50 read?
A: The IC50 was > 195 µM.

Q: `O[C@H]1CN(Cc2cccc(C(F)(F)F)c2)CC[C@@]12CCCO2` was tested. Which IC50 did it give?
A: Its IC50 is > 195 µM.

Q: With `Cc1nn(C)c(C)c1C1COCCN1C(=O)c1ccc(Cl)o1` (configuration not stated) as the compound, how does the IC50 read?
A: The IC50 was > 195 µM.

Q: How did the IC50 turn out when `Cc1nc(C2CCCN2C(=O)CC2CCCC2)ncc1C(N)=O` (configuration not stated) was run?
A: The IC50 was > 195 µM.

Q: How did the IC50 turn out when `O=C(C1CCCCC1)N1CCC(c2n[nH]c3nccnc23)CC1` was run?
A: Its IC50 is > 195 µM.

Q: Which IC50 does the source give for `CCOCc1cnc2n1CCN(C(=O)c1ccoc1C)C2C` (configuration not stated) here?
A: Its IC50 is > 195 µM.

Q: For `c1cncc(CN2CCc3ncnc(C4CC4)c3CC2)c1`, which IC50 is on record?
A: The IC50 was > 195 µM.

Q: For `Cc1ncsc1CN1CCN(C2CCOCC2)CC(C(N)=O)C1` (configuration not stated), which IC50 is on record?
A: The IC50 was > 195 µM.

Q: With `CNc1cc(-c2ccncc2)ncn1` as the compound, how does the IC50 read?
A: Its IC50 is > 195 µM.

Q: For `CNc1cncc(C2CCCN2Cc2cccc(C)n2)n1` (configuration not stated), which IC50 is on record?
A: Its IC50 is > 195 µM.

Q: `COCC(=O)N1CCCCC1c1nccc(C)n1` (configuration not stated) was tested. Which IC50 did it give?
A: The IC50 was > 195 µM.

Q: Which IC50 does the source give for `CCCC(O)CN1CC(C)(C)CN(C(=O)CCc2ccccc2)CC1=O` (configuration not stated) here?
A: The IC50 was > 195 µM.

Q: With `CCC(O)CN1CCN(C(=O)c2cc3ccccc3n2CC)CC1` (configuration not stated) as the compound, how does the IC50 read?
A: Its IC50 is > 195 µM.

Q: `Cc1ccc(N2CCc3ncnc(C)c3CC2)nn1` was tested. Which IC50 did it give?
A: Its IC50 is > 195 µM.

Q: `CC(C)NC(=O)c1nc2c(s1)CCCN2C(C)C` was tested. Which IC50 did it give?
A: The IC50 was > 195 µM.

Q: How did the IC50 turn out when `COCCN1CCN(Cc2cnc(C(C)C)nc2)CC1` was run?
A: Its IC50 is > 195 µM.

Q: `O=C(NCc1ccccn1)c1cnc(C2CCCN2)cn1` (configuration not stated) was tested. Which IC50 did it give?
A: Its IC50 is > 195 µM.

Q: `C[C@]1(O)CN(Cc2ncc[nH]2)CC[C@@H]1Oc1cccc(F)c1` was tested. Which IC50 did it give?
A: The IC50 was > 195 µM.

Q: With `CN(CC1(O)CCN(c2ccccn2)C1)C(=O)Cc1ccsc1` (configuration not stated) as the compound, how does the IC50 read?
A: The IC50 was > 195 µM.

Q: `CCN(CC)S(=O)(=O)N1CCCC(c2ncc3c(n2)CCN(C)C3)C1` (configuration not stated) was tested. Which IC50 did it give?
A: Its IC50 is > 195 µM.

Q: How did the IC50 turn out when `c1ccc(CO[C@H]2C[C@@H]3CN(Cc4cccnc4)C[C@@H]3C2)cc1` was run?
A: Its IC50 is > 195 µM.

Q: Which IC50 does the source give for `O[C@@H]1CN(Cc2ccncc2)C[C@H]1Oc1ccccc1` here?
A: The IC50 was > 195 µM.

Q: With `CC(=O)N1CCCC(c2ccccn2)C1` (configuration not stated) as the compound, how does the IC50 read?
A: Its IC50 is > 195 µM.

Q: For `NC(=O)CN1CCC(c2noc3cc(F)ccc23)CC1`, which IC50 is on record?
A: Its IC50 is > 195 µM.

Q: For `O=C([C@@H]1C[C@@H]2CCN(Cc3ccoc3)C[C@H]2O1)N1CCCC1`, which IC50 is on record?
A: The IC50 was > 195 µM.

Q: For `Cc1cc(C)n(CC2CCCN2C(=O)c2c(C)noc2C)n1` (configuration not stated), which IC50 is on record?
A: The IC50 was > 195 µM.

Q: How did the IC50 turn out when `CCc1cc(O)nc(C2CCCN2C(=O)COC)n1` (configuration not stated) was run?
A: Its IC50 is > 195 µM.

Q: `CCCS(=O)(=O)N1C[C@@H](c2ccccc2)[C@@]2(CCNC2=O)C1` was tested. Which IC50 did it give?
A: Its IC50 is > 195 µM.

Q: For `Cn1ccc(C(=O)N2CCOC(c3ccccn3)C2)cc1=O` (configuration not stated), which IC50 is on record?
A: The IC50 was > 195 µM.

Q: For `O=C(NCC1CC2(CO1)CN(Cc1cccs1)C2)C1CCC1` (configuration not stated), which IC50 is on record?
A: The IC50 was > 195 µM.

Q: How did the IC50 turn out when `O=C(N[C@@H]1CN(Cc2ccc3[nH]ccc3c2)C[C@H]1O)c1cscn1` was run?
A: The IC50 was > 195 µM.

Q: How did the IC50 turn out when `Cn1c(C(=O)NCC2(N)CCCC2)cc2ccccc21` was run?
A: The IC50 was > 195 µM.

Q: Which IC50 does the source give for `COC(=O)CCCNC(=O)Nc1ccccc1OC` here?
A: Its IC50 is > 195 µM.

Q: `CNC(=O)C1(CCCc2ccncc2)CCCCN1` (configuration not stated) was tested. Which IC50 did it give?
A: The IC50 was > 195 µM.

Q: Which IC50 does the source give for `Cc1ccc(CN2C[C@H](NC(=O)c3nccn3C)[C@H]3OCCC[C@H]32)o1` here?
A: Its IC50 is > 195 µM.

Q: How did the IC50 turn out when `COCCN1CCC(NCc2ccc(F)cc2F)C1` (configuration not stated) was run?
A: Its IC50 is > 195 µM.

Q: For `Cn1nccc1CCC(=O)N1CCCC(Cc2cccnc2)C1` (configuration not stated), which IC50 is on record?
A: The IC50 was > 195 µM.

Q: How did the IC50 turn out when `N#Cc1cn[nH]c1NCc1cc(Br)ccc1O` was run?
A: Its IC50 is 31.4 µM.

Q: How did the IC50 turn out when `CC(C)n1c2ccccc2c2c1cc(C(=O)N(C)C)n2S(C)(=O)=O` was run?
A: Its IC50 is > 195 µM.

Q: `CCn1cc(N)c(-c2nnc3n2CCCC3)n1` was tested. Which IC50 did it give?
A: The IC50 was > 195 µM.

Q: For `Cc1ccc(Cn2cc(C)c(N)n2)cc1`, which IC50 is on record?
A: Its IC50 is > 195 µM.

Q: `CCn1cc(CN2CCC(c3[nH]ncc3S(C)(=O)=O)C2)cn1` (configuration not stated) was tested. Which IC50 did it give?
A: The IC50 was > 195 µM.

Q: Which IC50 does the source give for `COC1CN(C(=O)CC2CCCC2)CCC(=O)N(C)c2ccccc21` (configuration not stated) here?
A: The IC50 was > 195 µM.

Q: For `CCOC(=O)COc1ccc(C(C)=O)c(O)c1`, which IC50 is on record?
A: Its IC50 is > 195 µM.

Q: With `Cc1cn(Cc2ccccc2)nc1N` as the compound, how does the IC50 read?
A: The IC50 was > 195 µM.

Q: With `COCCN1CCc2ncnc(NC3CC3)c2CC1` as the compound, how does the IC50 read?
A: Its IC50 is > 195 µM.

Q: With `Cc1nc(N(C)CCN(C)C)c2cnn(C)c2n1` as the compound, how does the IC50 read?
A: The IC50 was > 195 µM.

Q: How did the IC50 turn out when `COCC1CC2(CCN(Cc3nccs3)CC2)CN1Cc1ccccn1` (configuration not stated) was run?
A: Its IC50 is > 195 µM.
